This passage reports bioavailability and Stability results from ChEMBL document CHEMBL2321840, “Synthesis and structure-activity relationships of indazole arylsulfonamides as allosteric CC-chemokine receptor 4 (CCR4) antagonists” (J Med Chem, 2013).

Molecules are shown by their SMILES.

Series [1] in a line: Oral bioavailability in CD rat at 30 mg/kg administered as suspension. Format: ADME, organism-based. To be noted: in vivo.
Series [2] in a line: Stability of the compound in solid state at 40 to 50 degC 75 % relative humidity after 1 month by NMR analysis. To be noted: 730.5 h.

Take `COc1cccc2c1c(NS(=O)(=O)c1ccc(Cl)s1)nn2Cc1cccc(CNC(=O)C(C)(C)O)c1`: in series [1], the bioavailability was determined as 101%. In series [2], the Stability result is “Stable”.
